The target in experiment [1] is T1, ERK5 (Homo sapiens, UniProt Q13164).
T1 construct: MEF2-luciferase reporter
Put plainly: Inhibition of Cellular ERK5 Activity (cell-based assay, MEF2 luciferase reporter in SN12C cells). To be noted: renal cancer cell line SN12C, doxycycline-induced MEKSDD, mean where repeated. The procedure: (§1) Two assays were performed to assess the ERK5 inhibitory activity of compounds of the Examples, a cell-based assay and a cell-free biochemical assay. Where repeat measurements were taken, the value reported is a mean average.
The renal cancer cell line SN12C was transduced by a lentivirus pGreenFire1 MEF2 EF1 Neo (ref TR030VA-N) from SBI using standard infection protocol. pGreenFire1 MEF2 EF1 Neo allows the expression of luciferase gene under the control of minimal promoter with MEF2 transcriptional response elements. Cells harboring the reporter construct were selected by geneticin treatment. The selected cells were then transposed by a piggyback based plasmid pCM4007 allowing the expression of constitutively activated MEKSDD under control of TREG3 promoter, a doxycycline regulated promoter. Transposed cells were selected by puromycin treatment. Upon doxycycline treatment (1p g/ml) MEKSDD was expressed. MEKSDD activates ERK5 that phosphorylates MEF2C protein. Activated MEF2C protein can bind to its transcriptional response elements. Then the luciferase is expressed. In a 96-well plate (96F nuncleon refl37101 thermofisher), 50,000 cells were inoculated in 142.5 μl of RPMI medium containing 10% fetal calf serum, 1% glutamine, and 1 μg/ml doxycycline. After 24 hours, compounds were added in 7.5 μl culture medium (with 2% DMSO to give a final concentration of 0.1%) in order to obtain the desired concentration (0.3-1000 nM). The luciferase activity was measured using the Kit Bright Glo Luminescent Cell Assay Cat E2610 (Promega) according to the manufacturer's protocol. Luminescence was determined using 0.2 second reading/well using a Tecan SPARK. IC50 values were calculated using XLFIT5 for Microsoft Excel using method 205. The IC50 values represent the concentration of compound which inhibits the measurable luminescence signal by 50% as compared to DMSO-treated control cells.

Experiment [2] concerns the target T2, ERK5 (activated catalytic domain) (Homo sapiens, UniProt Q13164).
T2 construct: purchased CarnaBiosciences 04-146
Put plainly: Cell-Free Assay of ERK5 Inhibition (Time-Resolved FRET, 4EBP1 peptide phosphorylation). Conditions: ERK5 catalytic domain 4 nM, 1 mM ATP, 1 μM biotinylated 4EBP1 peptide, 30 min at 37° C.; mean where repeated; read-out: Cell-free assay (IC50 in nM). Type of experiment: biochemical. The procedure: as §1
An assay was performed to measure the capacity of each compound to inhibit ERK5 enzymatic activity. Compound potency was evaluated by Time-Resolved Forster Resonance Energy Transfer (FRET system). The activated catalytic domain of protein ERK5 (CarnaBiosciences #04-146) was mixed at 4 nM with varying concentrations of compound and incubated for 30 minutes at room temperature. A mixture of 1 mM ATP and 1 μM biotinylated synthetic peptide was added (Biosyntan GmbH). This synthetic peptide represents amino acids 30-52 of Eukaryotic translation initiation factor 4E-binding protein 1 (see, e.g., the sequence under accession No. NP_004086.1) biotinylated at the N-terminus. After 30 minutes at 37° C., the peptide phosphorylation by ERK5 was measured by addition of FRET reagents consisting of 12.5 μg/ml Streptavidin-XL665, 1 nM Anti-P-4EBP1 antibody and 300 ng/ml Anti-rabbit-K antibody. Following 90 minutes at room temperature fluorescent signals were read on the Pherastar FSX multimod detector from BMG Labtech (Exc° 340 nm, Em1 620 nm, Em2 665 nm). The IC50 values represent the concentration of compound which inhibits the measurable fluorescence signal by 50% as compared to the DMSO only control.

T2 sequence (Q13164 55-347 limits assumed): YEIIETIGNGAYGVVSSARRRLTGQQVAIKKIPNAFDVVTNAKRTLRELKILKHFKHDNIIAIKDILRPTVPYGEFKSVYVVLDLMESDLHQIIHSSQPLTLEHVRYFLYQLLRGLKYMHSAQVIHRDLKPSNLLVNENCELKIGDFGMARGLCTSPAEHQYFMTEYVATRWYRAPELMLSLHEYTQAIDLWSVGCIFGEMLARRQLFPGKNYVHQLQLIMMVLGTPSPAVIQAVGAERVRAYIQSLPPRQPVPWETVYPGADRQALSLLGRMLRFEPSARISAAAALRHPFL
T1 sequence (Q13164 whole entry): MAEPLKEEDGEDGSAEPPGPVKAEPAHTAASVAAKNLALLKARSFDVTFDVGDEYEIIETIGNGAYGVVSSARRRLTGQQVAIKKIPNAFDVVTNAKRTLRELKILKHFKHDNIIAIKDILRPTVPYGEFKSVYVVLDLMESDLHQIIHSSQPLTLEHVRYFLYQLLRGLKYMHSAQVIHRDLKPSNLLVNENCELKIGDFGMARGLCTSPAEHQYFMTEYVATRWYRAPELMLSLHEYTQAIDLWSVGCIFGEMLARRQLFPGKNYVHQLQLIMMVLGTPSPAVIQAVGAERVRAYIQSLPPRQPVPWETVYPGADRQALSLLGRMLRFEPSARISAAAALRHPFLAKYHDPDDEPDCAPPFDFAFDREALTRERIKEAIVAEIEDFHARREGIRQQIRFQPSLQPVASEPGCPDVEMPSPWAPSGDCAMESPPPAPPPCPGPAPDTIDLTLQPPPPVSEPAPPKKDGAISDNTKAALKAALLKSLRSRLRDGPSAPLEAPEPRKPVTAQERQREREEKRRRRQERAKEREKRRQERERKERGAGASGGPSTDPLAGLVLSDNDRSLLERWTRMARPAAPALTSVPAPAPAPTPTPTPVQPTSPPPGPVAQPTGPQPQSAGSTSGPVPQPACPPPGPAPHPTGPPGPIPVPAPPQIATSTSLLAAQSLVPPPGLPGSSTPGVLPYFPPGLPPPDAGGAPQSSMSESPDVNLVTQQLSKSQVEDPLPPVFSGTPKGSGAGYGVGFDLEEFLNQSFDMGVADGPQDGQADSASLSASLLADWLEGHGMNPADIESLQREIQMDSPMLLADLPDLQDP

Turning to `Nc1cc(OC(F)(F)F)ccc1C(=O)N1CCC(n2c(=O)[nH]c3ncc(CC4CCOC4)cc32)CC1` (racemic) [Example 23, (rac)-1-[1-[2-amino-4-(trifluoromethoxy)benzoyl]-4-piperidyl]-6-(tetrahydrofuran-3-ylmethyl)-3H-imidazo[4,5-b]pyridin-2-one], the IC50 in experiment [1] came out at 184 nM; in experiment [2] it was 86 nM.
On to `Nc1cc(OC(F)(F)F)ccc1C(=O)N1CCC(n2c(=O)[nH]c3ncc(OC4CCOC4)cc32)CC1` (single isomer, unassigned; isomer 2) [Example 44, 1-[1-[2-amino-4-(trifluoromethoxy)benzoyl]-4-piperidyl]-6-[tetrahydrofuran-3-yl]oxy-3H-imidazo[4,5-b]pyridin-2-one, Isomer 2], for which the IC50 in experiment [1] came to 169 nM; in experiment [2], 310 nM.
As for `CN1CCC(Oc2cnc3[nH]c(=O)n(C4CCN(C(=O)c5ccc(OC(F)(F)F)cc5N)CC4)c3c2)C1` (single isomer, unassigned; isomer 2) [Example 48, 1-[1-[2-amino-4-(trifluoromethoxy)benzoyl]-4-piperidyl]-6-[1-methylpyrrolidin-3-yl]oxy-3H-imidazo[4,5-b]pyridin-2-one, Isomer 2], the IC50 in experiment [1] turned out to be 117 nM; in experiment [2] it was 78 nM.
For `Nc1cc(OC(F)(F)F)ccc1C(=O)N1CCC(n2c(=O)[nH]c3ncc(C4CCCOC4)cc32)CC1` (racemic) [Example 40, (rac)-1-[1-[2-amino-4-(trifluoromethoxy)benzoyl]-4-piperidyl]-6-tetrahydropyran-3-yl-3H-imidazo[4,5-b]pyridin-2-one], in that order: 168 nM and 291 nM.
In the case of `CO[C@H]1CC[C@H](c2cnc3[nH]c(=O)n(C4CCN(C(=O)c5ccc(OC(F)(F)F)cc5)CC4)c3c2)CC1` [Example 26, trans-6-(4-methoxycyclohexyl)-1-[1-[4-(trifluoromethoxy)benzoyl]-4-piperidyl]-3H-imidazo[4,5-b]pyridin-2-one], the IC50 in experiment [1] is 118 nM; in experiment [2], 235 nM.
The corresponding values for `O=C(c1ccc(OC(F)(F)F)cc1)N1CCC(n2c(=O)[nH]c3ncc(N4CCO[C@@H](CO)C4)cc32)CC1` [Example 11, 6-[(2R)-2-(hydroxymethyl)morpholin-4-yl]-1-[1-[4-(trifluoromethoxy)benzoyl]-4-piperidyl]-3H-imidazo[4,5-b]pyridin-2-one] are 1830 nM and 1050 nM.
The corresponding values for `Nc1cc(OC(F)(F)F)ccc1C(=O)N1CCC(n2c(=O)[nH]c3ncc(C45CCOCC4C5)cc32)CC1` (racemic) [Example 31, (rac)-1-[1-[2-amino-4-(trifluoromethoxy)benzoyl]-4-piperidyl]-6-(3-oxabicyclo[4.1.0]heptan-6-yl)-3H-imidazo[4,5-b]pyridin-2-one] are 170 nM and 288 nM.
The corresponding values for `Nc1cc(OC(F)(F)F)ccc1C(=O)N1CCC(n2c(=O)[nH]c3ncc(C45CCCCC4C5)cc32)CC1` (racemic) [Example 34, (rac)-1-[1-[2-amino-4-(trifluoromethoxy)benzoyl]-4-piperidyl]-6-norcaran-1-yl-3H-imidazo[4,5-b]pyridin-2-one] are 217 nM and 974 nM.
Regarding `O=C(c1ccc(OC(F)(F)F)cc1)N1CCC(n2c(=O)[nH]c3ncc([C@H]4CC[C@@H](O)CC4)cc32)CC1` [Example 58, cis-6-(4-hydroxycyclohexyl)-1-[1-[4-(trifluoromethoxy)benzoyl]-4-piperidyl]-3H-imidazo[4,5-b]pyridin-2-one], the IC50 in experiment [1] came to 222 nM; in experiment [2], 288 nM.
For `Nc1cc(OC(F)(F)F)ccc1C(=O)N1CCC(n2c(=O)[nH]c3ncc(OC4CCOCC4)cc32)CC1` [Example 1, 1-[1-[2-amino-4-(trifluoromethoxy)benzoyl]-4-piperidyl]-6-tetrahydropyran-4-yloxy-3H-imidazo[4,5-b]pyridin-2-one], the IC50 in experiment [1] amounted to 48 nM; in experiment [2], 29 nM.
The corresponding values for `O=C(c1ccc(S(F)(F)(F)(F)F)cc1)N1CCC(n2c(=O)[nH]c3ncc(C4CCOCC4)cc32)C1` (racemic) [Example 50, (rac)-1-[1-[4-(pentafluoro-λ^6-sulfanyl)benzoyl]pyrrolidin-3-yl]-6-tetrahydropyran-4-yl-3H-imidazo[4,5-b]pyridin-2-one] are 361 nM and 1620 nM.
Take `Nc1cc(OC(F)(F)F)ccc1C(=O)N1CCC(n2c(=O)[nH]c3ncc(C45CCNCC4C5)cc32)CC1` (racemic) [Example 28, (rac)-1-[1-[2-amino-4-(trifluoromethoxy)benzoyl]-4-piperidyl]-6-(3-azabicyclo[4.1.0]heptan-6-yl)-3H-imidazo[4,5-b]pyridin-2-one, 2,2,2-trifluoroacetic acid]: the IC50 in experiment [2] amounted to 533 nM.
`O=C(c1ccc(OC(F)(F)F)cc1)N1CCC(n2c(=O)[nH]c3ncc([C@H]4CCC[C@@H](O)CC4)cc32)CC1` (racemic) [Example 62, (rac)-cis-6-(4-hydroxycycloheptyl)-1-[1-[4-(trifluoromethoxy)benzoyl]-4-piperidyl]-3H-imidazo[4,5-b]pyridin-2-one] registered an IC50 in experiment [1] of 257 nM.
Same read-out and setting: the result for `O=C(c1ccc(OC(F)(F)F)cc1)N1CCC(n2c(=O)[nH]c3ncc([C@@H]4CCC[C@@H](O)CC4)cc32)CC1` (racemic) [Example 61, (rac)-trans-6-(4-hydroxycycloheptyl)-1-[1-[4-(trifluoromethoxy)benzoyl]-4-piperidyl]-3H-imidazo[4,5-b]pyridin-2-one] reads 202 nM.
Take `Nc1cc(OC(F)(F)F)ccc1C(=O)N1CCC(n2c(=O)[nH]c3ncc(C4CCCCO4)cc32)CC1` (racemic) [Example 38, (rac)-1-[1-[2-amino-4-(trifluoromethoxy)benzoyl]-4-piperidyl]-6-tetrahydropyran-2-yl-3H-imidazo[4,5-b]pyridin-2-one]: the values for the IC50 in experiment [1] and in experiment [2] were 541 nM and 1470 nM, respectively.
The compound `O=C(c1ccc(OC(F)(F)F)cc1)N1CCC(n2c(=O)[nH]c3ncc([C@@H]4CCCC[C@@H](O)C4)cc32)CC1` (racemic) [Example 66, (rac)-trans-6-(3-hydroxycycloheptyl)-1-[1-[4-(trifluoromethoxy)benzoyl]-4-piperidyl]-3H-imidazo[4,5-b]pyridin-2-one] showed a half-inhibitory concentration (IC50) in experiment [1] of 547 nM.
The same measure, in the same setting: the result for `O=C(c1ccc(OC(F)(F)F)cc1)N1CCC(n2c(=O)[nH]c3ncc(C4CCCC(=NO)CC4)cc32)CC1` (single isomer, unassigned; isomer 1) [Example 64, (rac)-6-[(4E/Z)-4-hydroxyiminocycloheptyl]-1-[1-[4-(trifluoromethoxy)benzoyl]-4-piperidyl]-3H-imidazo[4,5-b]pyridin-2-one, Isomer 1] reads 358 nM; that for `O=C(c1ccc(OC(F)(F)F)cc1)N1CCC(n2c(=O)[nH]c3ncc(C4CCCC(=NO)CC4)cc32)CC1` (single isomer, unassigned; isomer 2) [Example 65, (rac)-6-[(4E/Z)-4-hydroxyiminocycloheptyl]-1-[1-[4-(trifluoromethoxy)benzoyl]-4-piperidyl]-3H-imidazo[4,5-b]pyridin-2-one, Isomer 2], 575 nM.
On the same count and under the same terms, under `O=C(c1ccc(OC(F)(F)F)cc1)N1CCC(n2c(=O)[nH]c3ncc([C@H]4CCCC[C@@H](O)C4)cc32)CC1` (racemic) [Example 67, (rac)-cis-6-(3-hydroxycycloheptyl)-1-[1-[4-(trifluoromethoxy)benzoyl]-4-piperidyl]-3H-imidazo[4,5-b]pyridin-2-one] stands 358 nM.
On the same count and under the same terms, under `O=C1CCCC(c2cnc3[nH]c(=O)n(C4CCN(C(=O)c5ccc(OC(F)(F)F)cc5)CC4)c3c2)CC1` (racemic) [Example 63, (rac)-6-(4-oxocycloheptyl)-1-[1-[4-(trifluoromethoxy)benzoyl]-4-piperidyl]-3H-imidazo[4,5-b]pyridine-2-one] stands 254 nM.

For orientation: IC50 means the concentration that inhibits the measured activity by half.

These data come from US20260297087A1, “Pyridoimidazolone Compounds, Preparation Thereof and Therapeutic Uses Thereof” (Sanofi, priority 2023, published 2026).
